The text below walks through data of paper PMC8451667 (Emerging Microbes & Infections, 2021).

One data set concerns MDCK cells. The settings on record: cited from earlier work.
A further data set has as its system Ca/04 (H1N1) virus. More on the design: species or system mice. The settings on record: mouse, in vivo.
The conditions of data set [1]: mouse, in vivo.
Data set [2] concerns A/California/04/2009 (H1N1) virus. Put plainly: microbe, parasite or virus in culture. In kind it is cell-based, Influenza A virus. The settings on record: for EC50: Influenza A virus.
The test system of data set [3] is several contemporary influenza A viruses. Put plainly: microbe, parasite or virus in culture. Type of data set: cell-based. The following applies: read-out: EC50 values against all IAVs tested.
The nature of another data set: in vitro. The settings on record: dog.
The next data set in a line: in vivo. The following applies: male, BALB/c, mouse, ip, 50 mg/kg.

Where two headings read alike, the source gives them in different places.

Take `CCC(CC)O[C@@H]1C=C(C(=O)O)C[C@H](N)[C@H]1NC(C)=O` [Oseltamivir carboxylate]: the CC50 in the data set on MDCK cells is above 20 µM.
As to `CCOC(=O)C1=C[C@@H](OC(CC)CC)[C@H](NC(C)=O)[C@@H](N)C1` [Oseltamivir, Oseltamivir phosphate, reference compound], in the data set with Ca/04 (H1N1) virus, the “Clinical signs: activity” value is listed as “remained alert”, the “Clinical signs: physical appearance” value was “mild clinical signs”, the “Influenza virus nucleoprotein in lungs by immunostaining” value is “mild-moderate amounts of viral antigens” and the “Loss of initial body weight” value is recorded as around 15%. In the data set on Ca/04 (H1N1) virus, the Survival was 85%; the “Virus titers in lung and NT by TCID50 vs Ca/04-vehicle group” value is given as “trend towards reduced virus load”. Moreover, in data set [1], the “Histopathology of brain, livers, kidneys, lungs and hearts” value was “no signs of toxicity”. In addition, the EC50 in data set [2] (H1N1, read-out: EC50 alone Oseltamivir (nM)) amounted to 1.77 ± 0.11 nM.
Take `OC12CC3CC(C1)CC(NCc1ccc(I)s1)(C3)C2` [UAWJ106]: the CC50 in the data set with MDCK cells was above 100 µM.
`[2H]C(NC12CC3CC(CC(O)(C3)C1)C2)c1ccc(I)s1` (stereo not shown) [UAWJ280, 3-{[(5-iodothiophen-2-yl)(D)methyl]amino}adamantan-1-ol]: the EC50 in data set [3] lay in the range of 0.2 to 0.6 µM. In the data set “in vitro”, the CC50 was above 100 µM. For the same molecule, in the data set on Ca/04 (H1N1) virus, the “Clinical signs: activity” value was “minor changes in activity”, the “Clinical signs: physical appearance” value is recorded as “mild clinical signs”, the “Influenza virus nucleoprotein in lungs by immunostaining” value is listed as “moderate amounts of virus nucleoprotein” and the “Loss of initial body weight” value is reported as around 15%. In addition, in the data set with Ca/04 (H1N1) virus, the “Section with pneumocyte type 2 hyperplasia and hypertrophy, alveolar oedema and inflammation” value is reported as “up to 80%”; the Survival is reported as 90%; the “Virus titers in lung and NT by TCID50 vs Ca/04-vehicle group” value was “trend towards reduced virus load”. Moreover, the “Histopathology of brain, livers, kidneys, lungs and hearts” value in data set [1] is “no signs of toxicity”. For the same molecule, in “in vivo”, the AUC(0-inf) turned out to be 11.5 µM·h, the apparent clearance (CL/F) is 11.2 L/h/kg, the Cmax stood at 5.61 µM and the Tmax is 0.42 h. Further, in the data set “in vivo”, the Vd/F came out at 38 ± 4.4 L/kg and the half-life is 2.34 h. Also, the “Combination effect with oseltamivir in cell culture” value in data set [2] is on record as “strong synergistic antiviral effect”. The EC50 in data set [2] (H1N1, read-out: EC50 alone UAWJ280 (μM)) was 300 ± 18 nM.
